According to US20230391729A1, “SUCCINATE SALTS OF N-(3-(4-(3-(DIISOBUTYLAMINO)PROPYL)PIPERAZIN-1-YL)PROPYL)-1H-BENZO[D]IMIDAZOL-2-AMINE, PREPARATION THEREOF AND USE OF THE SAME” (ALZPROTECT, priority 2020, published 2023):

Key:
Assay type in all cases: physicochemical
[1] = Polymorphic form stability of di-sulphate salt upon drying at 50° C.
[2] = Water solubility of di-sulphate salt (background)
[3] = Storage stability of free base, di-sulphate salt and its aqueous solutions (background); conditions: for stability of aqueous solution: glass vials, no preservative
[4] = 7-day stability tests of the salt (XRPD, HPLC purity); conditions: 50° C., 80° C. and ambient light
Method: 7-day stability tests were carried out as follows: 15 mg of salt was weighed into x3 2 mL vials. The vials were then placed at 40° C./75% RH, 80° C. and under ambient light; after 1 week, the solids were analysed by XRPD and HPLC purity (method A).

[5] = Solubility assessment in unbuffered water and pH buffers; conditions: thermodynamic from solid
Method: 100 μL of the appropriate buffer was added to form a slurry.

[6] = Dynamic vapour sorption (DVS)
Method: Approximately 10-20 mg of sample was placed into a mesh vapour sorption balance pan and loaded into an Intrinsic dynamic vapour sorption balance by Surface Measurement Systems. The sample was subjected to a ramping profile from 40-90% relative humidity (RH) at 10% increments, maintaining the sample at each step until a stable weight had been achieved (dm/dt 0.004%, minimum step length 30 minutes, maximum step length 500 minutes) at 25° C. After completion of the sorption cycle, the sample was dried using the same procedure to 0% RH and then a second sorption cycle back to 40% RH. Two cycles were performed. The weight change during the sorption/desorption cycles were plotted, allowing for the hygroscopic nature of the sample to be determined. XRPD analysis was then carried out on any solid retained.

CC(C)CN(CCCN1CCN(CCCNc2nc3ccccc3[nH]2)CC1)CC(C)C.O=S(=O)(O)O.O=S(=O)(O)O [Form A, N-(3-(4-(3-(diisobutylamino)propyl)piperazin-1-yl)propyl)-1H-benzo[d]imidazol-2-amine di-sulphate salt]
crystalline form stability upon drying ([1]; di-sulphate salt): converts back to polymorphic Form B

CC(C)CN(CCCN1CCN(CCCNc2nc3ccccc3[nH]2)CC1)CC(C)C.O=S(=O)(O)O.O=S(=O)(O)O [Form B, N-(3-(4-(3-(diisobutylamino)propyl)piperazin-1-yl)propyl)-1H-benzo[d]imidazol-2-amine di-sulphate]
crystalline form stability upon drying ([1]; di-sulphate): partially loses its crystallinity

CC(C)CN(CCCN1CCN(CCCNc2nc3ccccc3[nH]2)CC1)CC(C)C.O=S(=O)(O)O.O=S(=O)(O)O [di-sulphate salt, N-(3-(4-(3-(diisobutylamino)propyl)piperazin-1-yl)propyl)-1H-benzo[d]imidazol-2-amine di-sulphate]
solubility [2]: > 100 mg/mL | stability of aqueous solution ([3]; 5° C.): up to 18 months | stability to regular storage conditions ([3]; 15-25° C.): at least 5 years | stability of aqueous solution ([3]; 25° C./60% RH): up to 18 months | stability of aqueous solution ([3]; 40° C./75% RH): up to 6 months

CC(C)CN(CCCN1CCN(CCCNc2nc3ccccc3[nH]2)CC1)CC(C)C [free base, N-(3-(4-(3-(diisobutylamino)propyl)piperazin-1-yl)propyl)-1H-benzo[d]imidazol-2-amine]
long term stability [3]: long term stability issues due to oxidative degradation

CC(C)CN(CCCN1CCN(CCCNc2nc3ccccc3[nH]2)CC1)CC(C)C.O=C(O)CCC(=O)O.O=C(O)CCC(=O)O.O=C(O)CCC(=O)O [tris-succinate salt Form 2, N-(3-(4-(3-(diisobutylamino)propyl)piperazin-1-yl)propyl)-1H-benzo[d]imidazol-2-amine tris-succinate salt]
7-day stability [4]: stable | solubility ([5]; pH 1.2, simulated gastric fluid): > 123 mg/mL | solubility ([5]; pH 4.5, aqueous buffer): > 92.4 mg/mL | solubility ([5]; pH 6.8, aqueous buffer): > 95.7 mg/mL | Post-DVS XRPD crystalline form ([6]; after DVS cycle): remain as tris-succinate salt Form 2 | DVS weight uptake ([6]; at 70% RH, 25° C.): ca. +0.1 wt. % | DVS water uptake in equivalents ([6]; up to 90% RH): approximately 4.3 equiv. water | DVS weight increase ([6]; up to 90% RH, 25° C.): ca. +9.92 wt. % | hygroscopicity ([6]; up to 90% relative humidity): not hygroscopic
